“Also recorded” adds a separate entry of the source.
How the values were obtained:
[1] = target: T1, alpha-synuclein/Synapsin III interaction (Homo sapiens, UniProt O14994+P37840); assay: FLIM-FRET (donor lifetime) of alpha-synuclein/Synapsin III interaction in SK-N-SH cells; assay type: cell-based; conditions: 10 μM, 15 min after treatment
T1 construct: expressed in transfected cells; host or cells: neuronal-differentiated (retinoic acid) human SK-N-SH neuroblastoma cells, transient transfection with Lipofectamine 3000
T1 sequence (O14994 whole entry, one chain of several): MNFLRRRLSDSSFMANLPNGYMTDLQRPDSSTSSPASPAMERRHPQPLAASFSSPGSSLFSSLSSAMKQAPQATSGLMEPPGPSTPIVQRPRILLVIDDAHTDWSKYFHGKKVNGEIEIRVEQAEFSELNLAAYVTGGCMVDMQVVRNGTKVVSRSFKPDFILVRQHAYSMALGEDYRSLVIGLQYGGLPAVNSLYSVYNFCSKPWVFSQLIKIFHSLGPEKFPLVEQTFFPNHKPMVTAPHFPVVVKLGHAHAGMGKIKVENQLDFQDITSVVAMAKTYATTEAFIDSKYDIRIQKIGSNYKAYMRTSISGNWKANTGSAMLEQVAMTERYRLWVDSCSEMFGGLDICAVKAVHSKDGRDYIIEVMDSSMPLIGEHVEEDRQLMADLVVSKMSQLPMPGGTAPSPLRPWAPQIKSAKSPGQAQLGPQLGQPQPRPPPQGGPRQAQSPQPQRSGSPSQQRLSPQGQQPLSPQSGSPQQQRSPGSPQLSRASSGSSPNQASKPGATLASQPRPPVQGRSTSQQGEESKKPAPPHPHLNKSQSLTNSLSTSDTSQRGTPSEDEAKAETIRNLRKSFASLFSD
Procedure: The ability of the different compound to stimulate alpha-synuclein/Synapsin III interaction was evaluated by acceptor photobleaching FRET or FLIM in neuronal-like cells. In particular, we used neuronal-differentiated SK—N—SH neuroblastoma cells transiently transfected with red fluorescent protein (RFP)-tagged human wild type alpha-synuclein and green fluorescent protein (GFP)-tagged the human 63 kDa Synapsin III isoform.
The comparison of the lifetimes of the donor alone and in presence of the acceptor allows for precise and concentration-independent measurements of FRET efficiency. Fluorescence lifetime is defined as the average time that a fluorophore spends in the excited state after the absorption of light, prior to returning to the ground state by emitting a photon. Donor fluorescence lifetime is decreased when FRET occurs between the fluorophore pair. The comparison of the lifetimes of the donor alone and in presence of the acceptor allows for precise and concentration-independent measurements of FRET efficiency (Ishikawa-Ankerhold, H. C. et al. Molecules (Basel, Switzerland) 2012, 17, 4047-4132). Human neuroblastoma SK—N—SH cells were grown in complete medium comprising Dulbecco's modified Eagle's medium with 1000 mg glucose/l supplemented with 10% heat-inactivated fetal bovine serum, 100 μg/ml penicillin and 100 μg/ml streptomycin. Cells were maintained at 37° C. under a humidified atmosphere of 5% CO2 and […]. For FRET/FLIM studies, SK—N—SH cells were seeded onto poli-D-lysine-coat 1.7 cm2 glass chamber (15000 cells per well) and were maintained in differentiation medium for ten days by daily adding 10 μM retinoic acid to the medium. […] The time-domain FLIM was measured using a Time-Correlated Single Photon Counting (TCSPC) (PicoQuant) operated with SymPhoTime 64 software (PicoQuant). […] The images of GFP fluorescence generated in ZEN software were stored and processed with SymPhoTime 64. The mean fluorescence intensities within cell body were determined using the ROI tool in SymPhoTime 64. […] The fluorescence lifetime analysis was performed in the SymPhoTime 64 software within the cell body, automatically recognized by the software as ROI 0. Individual photon arrivals were detected using a SPAD detector and events were recorded by a PicoHarp 300 TCSPC module. […] The percentage FLIM-FRET efficiency was calculated as: 100×[1−(lifetime of donor with FRET/lifetime of donor without FRET)]. For lifetime analysis, fifteen cells were recorded for each condition, included GFP alone.

[2] = test system: alpha-synuclein aggregation in SK—N—SH cells; assay: Alpha-synuclein aggregation after glucose deprivation in SK-N-SH alpha-synuclein stable clones (immunocytochemistry); assay type: cell-based, human
Procedure: Human neuroblastoma SK—N—SH full length (fl) alpha-synuclein stable clones were seeded onto poly-D-lysine-coated glass coverslides in 24-well plates and were grown in complete medium comprising Dulbecco's modified Eagle's medium with 1000 mg glucose/l supplemented with 10% heat-inactivated fetal bovine serum, 100 μg/ml penicillin and 100 μg/ml streptomycin. Cells were maintained at 37° C. under a humidified atmosphere of 5% CO2 and […]. At 80% confluence, cells underwent glucose deprivation (GD) in order to induce alpha-synuclein aggregation (Bellucci, A.; et al. Journal of neurochemistry 2008, 106, 560-577). Briefly, GD was performed through an incubation of the cells with Hank's balanced salt solution supplemented with 2 mM glutamine and 10% heat-inactivated fetal bovine serum, for 1 h at 37° C. […] After 24 h of treatment, cells were fixed by incubating for 15 min in 4% paraformaldehyde with 4% sucrose in 1 M PBS, pH 7.4. The fixed cells were then stored in PBS-containing 0.05% sodium azide. Slides were incubated for 1 h at room temperature in blocking solution [2% w/v bovine serum albumin (BSA) plus 3% v/v normal goat serum in PBS], then overnight at 4° C. with the primary antibody (Syn211 antibody against alpha-synuclein) at the optimal working dilution. On the following day, cells were incubated for 1 h at room temperature with the Cy3-conjugated secondary antibody diluted in 0.1% Triton X-100 PBS plus BSA 1 mg/ml. Finally, cell nuclei were counterstained with Hoechst 33258 dye, and the coverslips were mounted onto glass slides using Vectashield.

[3] = test system: alpha-synuclein aggregation in primary mesencephalic neurons; assay: Alpha-synuclein aggregation in primary mouse midbrain neurons exposed to glucose deprivation; assay type: cell-based
SYN120 tg mice = assay: Open-field motility after chronic 6 weeks treatment in SYN120 tg mice; assay type: in vivo, mouse; conditions: daily i.p. 5 mg/kg for 6 weeks, vs vehicle
Procedure: Two groups of 12 month-old SYN120 tg mice (N=4 animals per group) were subjected to daily i.p. administration of either vehicle or compound I-threo (5 mg/kg) for 6 weeks. All experiments were made in accordance with Directive 2010/63/EU of the European Parliament and of the Council of 22 Sep. 2010 on the protection of animals used. All experimental or surgical procedures conformed to the National Research Guide for the Care and Use of Laboratory Animals and were approved by the Animal Research Committees of the University of Brescia (Protocol Permit 719/2015-PR). At the end of treatment, the total distance travelled by the mice was recorded in the open field arena. […] Student's t-test. N=3 for each experimental group.

| Structure (SMILES) | stimulation of alpha-synuclein/Synapsin III interaction (FLIM), in words [1] | % decrease of tau amplitude (donor lifetime) vs MPH treated cells [1] [%] | % decrease of tau amplitude (donor lifetime) vs untreated cells [1] [%] | alpha-synuclein aggregates seen in images after GD ([2]; 10 μM, 24 h, vs non-treated (NT) cells, preliminary) | formation of alpha-synuclein inclusions after GD (immunofluorescence intensity and average particle size) ([2]; 10 μM, 24 h after 1 h glucose deprivation, vs untreated, hydrochloride) | EC50 ([2]; Homo sapiens, SK-N-SH cells, read-out: EC50 in reducing alpha-synuclein aggregation) [nM] | efficacy (% effect) in reducing alpha-synuclein aggregation, compared with MPH ([2]; SK-N-SH cells) | EC50 fold lower than that of MPH ([2]; SK-N-SH cells, I-threo vs MPH) [fold] | alpha-synuclein inclusion formation (total immunofluorescence intensity and particle size) ([3]; I-threo, VI-threo 50 and 100 nM, MPH 100 nM, hydrochloride) | efficiency higher than that of MPH ([3]; primary neurons) | total motility (total distance travelled) in open field (SYN120 tg mice) |
| --- | --- | --- | --- | --- | --- | --- | --- | --- | --- | --- | --- |
| COC(=O)[C@H](c1ccc(C)cc1)C1CCCCN1.Cl (stereo partly drawn) [I-erythro] | did not stimulate alpha-synuclein/Synapsin III interaction |  |  |  |  |  |  |  |  |  |  |
| COC(=O)[C@@H](c1ccc(C)cc1)C1CCCCN1.Cl (stereo partly drawn) [I-threo, threo methyl 2-(piperidin-2-yl)-2-(p-tolyl)acetate hydrochloride] | able to promote alpha-synuclein/synapsin III interaction | -8.4 | -11.95 | no aggregates were observed | significantly reduce the formation of alpha-synuclein inclusions; also recorded: significantly reduce alpha-synuclein aggregation in vitro | 431 | almost comparable | 200 | significantly reduce alpha-synuclein inclusion formation; also recorded: efficiently hinders alpha-synuclein aggregation | 50-70% | significant improvement in total motility |
